Reference: patent US10370371B2, “Substituted pyrimidine Bmi-1 inhibitors” (PTC Therapeutics, Inc., priority 2013, dated 2019)

Experiments:
Bmi-1 protein = assay: Sandwich ELISA Assay (Bmi-1 protein level in HT-1080 cells); format: cell-based
In short: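 HT-1080 cells were treated with compounds (0.5% DMSO final) for 40-48 h at 37 °C. Lysates were assayed by sandwich ELISA: mouse anti-Bmi-1 capture, rabbit anti-Bmi-1 and HRP anti-rabbit detection, TMB read at OD450 (OD570 reference). Levels were quantified against a recombinant GST-Bmi-1 standard curve (125-8000 pg/mL).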

Row | Structure (SMILES) | melting point | EC50 (Bmi-1 protein)
1 | Cc1cc2nc(C)n(-c3cc(N)nc(Nc4ccc(OC(F)F)cc4)n3)c2cc1C [Cpd 188, N^2-[4-(difluoromethoxy)phenyl]-6-(2,5,6-trimethyl-1H-benzimidazol-1-yl)pyrimidine-2,4-diamine] | 89 to 91 °C | 0.01 to 0.1 µM
2 | COc1ccc(Nc2nc(N)cc(-c3c(C)noc3C)n2)cc1 [Cpd 189, 6-(3,5-dimethyl-1,2-oxazol-4-yl)-N^2-(4-methoxyphenyl)pyrimidine-2,4-diamine] | 89 to 91 °C | 0.1 to 3 µM
